According to patent publication US8624034B2, “Fluoro-pyridinone derivatives useful as antibacterial agents” (Pfizer Inc., priority 2011, dated 2014):
Converted amounts (≈) assume the structure as drawn. Like-named read-outs stand apart in the source and are kept apart here.

Key:
[1] = system: Pseudomonas aeruginosa UI-18: wild-type (PA-7); test: MIC determination, PA-7; assay type: cell-based; settings: Table 2, lower of duplicate values
Method: The in vitro antibacterial activity of compounds described in the Examples was evaluated by minimum inhibitory concentration (MIC) testing according to Clinical and Laboratory Standards Institute (CLSI). See: Clinical and Laboratory Standards Institute. Methods for Dilution Antimicrobial Susceptibility Tests for Bacteria that Grow Aerobically; Approved Standard-Eighth Edition. CLSI document M7-A8 [ISBN 1-56238-689-1]. Clinical and Laboratory Standards Institute, 940 West Valley Road, Suite 1400, Wayne, Pa. 19087-1898 USA, 2006; also Clinical and Laboratory Standards Institute. Performance Standards for Antimicrobial Susceptibility Testing; Twentieth Informational Supplement. CLSI document M100-S20 [ISBN 1-56238-716-2]. Clinical and Laboratory Standards Institute.
The MIC determination is a standard laboratory method for evaluating the antibacterial activity of a compound. The MIC represents the lowest drug concentration that inhibits visible growth of bacteria following overnight incubation. […] Typically, the drug concentration range is broken down into 2-fold increments (e.g. 0.06 μg/mL, 0.12 μg/mL. 0.25 μg/mL, 0.50 μg/mL, 1.0 μg/mL, etc.) and the various drug concentrations are all individually incubated overnight with approximately the same number of bacteria. The MIC is then determined by visually inspecting the drug effect at each concentration, and identifying the lowest drug concentration that has inhibited bacterial growth as compared to the drug free control. Typically, bacteria continue to grow at drug concentrations lower than the MIC and don't grow at concentrations at and above the MIC.
The MIC values described in Table 2 and 3 below were derived from assays wherein each test compound was evaluated in duplicate. In cases where the duplicate values varied by 0-2-fold, the lower of the two values was reported below. Generally speaking, if the duplicate values varied by more than 2-fold, the assay was considered non-valid and was repeated until the variation between duplicate runs was ≦2-fold. In line with the CLSI guidelines referred to above, both control organisms and reference compounds were utilized in each MIC assay to provide proper quality control. MIC values generated with these control organisms and reference compounds were required to fall within a defined range for the assay to be considered valid and be included herein. Those skilled in the art will recognize that MIC values can and do vary from experiment to experiment. Generally speaking, it should be recognized that MIC values often vary +/−2-fold from experiment to experiment. While a single MIC is reported for each compound and each microorganism, the reader should not conclude that each compound was only tested once. Several of the compounds were subjected to multiple tests. The data reported in Tables 2 and 3 is reflective of the compounds relative activity and different MICs may have been generated on these occasions in line with the guidelines described above.
The following bacterial strains were used in these MIC determinations:
1) Pseudomonas aeruginosa UI-18: Wild-type, labeled as PA-7 in Tables 2 and 3;

[2] = target: T1, Pseudomonas aeruginosa LpxC enzyme (Pseudomonas aeruginosa, UniProt P47205); test: IC50 assay, LpxC enzyme from P. aeruginosa (PA LpxC enzyme IC50); assay type: biochemical; settings: LpxC enzyme 0.1 nM, 25° C., 1 hour
T1 construct: made in house; host or cells: E. coli
T1 sequence (P47205 1-303): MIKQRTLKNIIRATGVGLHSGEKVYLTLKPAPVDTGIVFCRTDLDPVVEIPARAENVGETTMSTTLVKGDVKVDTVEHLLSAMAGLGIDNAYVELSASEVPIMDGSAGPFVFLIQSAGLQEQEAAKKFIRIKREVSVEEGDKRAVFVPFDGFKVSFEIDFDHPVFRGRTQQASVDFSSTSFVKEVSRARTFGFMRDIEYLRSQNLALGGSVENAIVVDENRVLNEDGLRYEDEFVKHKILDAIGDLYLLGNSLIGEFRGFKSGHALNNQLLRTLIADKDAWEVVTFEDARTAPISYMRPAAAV
Method in brief: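 IC50 values came from percent conversion, referenced to a no-enzyme control. Conversion was read by RapidFire HTMS mass spectrometry after HCl quench of the 1 h enzyme reaction.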

[3] = system: Escherichia coli EC-1: VOGEL, mouse virulent; test: MIC determination, EC-1; assay type: cell-based; settings: Escherichia coli, read-out: EC-1 (MIC), Table 2, lower of duplicate values
Method in brief: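 Duplicate runs differing by more than 2-fold were repeated, and otherwise the lower MIC was kept. The test organism was E. coli EC-1 (VOGEL, mouse virulent), incubated overnight across 2-fold compound dilutions following CLSI guidelines. The MIC was read visually as the lowest concentration inhibiting growth relative to drug-free control.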

[4] = system: Acinetobacter baumannii/haemolyticus, multidrug-resistant clinical isolate (AB-3167); test: MIC determination, AB-3167; assay type: cell-based; settings: Table 2, lower of duplicate values
Method in brief: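 MIC read visually after overnight growth across 2-fold concentration steps in the CLSI dilution method against the multidrug-resistant clinical isolate. Duplicate determinations, lower value reported when within 2-fold, otherwise repeated; every run checked with control organisms and reference drugs.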

Row | Compound | MIC [1] [µg/mL] | IC50 ([2]; Table 2, read-out: PA:IC50) [pM] | MIC [3] [µg/mL] | MIC [4] [µg/mL] | IC50 ([2]; PA:IC50, Table 2) [pM]
1 | C[C@@](CCn1cc(F)c(C#Cc2ccccc2)cc1=O)(C(=O)NO)S(C)(=O)=O [Example 48, (2R)-4-[5-Fluoro-2-oxo-4-(phenylethynyl)pyridin-1(2H)-yl]-N-hydroxy-2-methyl-2-(methylsulfonyl)butanamide] | 0.5 (≈ 1.23 µM) | 555 | 0.06 (≈ 0.148 µM) | > 64 | –
2 | [2H]C([2H])([2H])c1ccc(-c2cc(=O)n(CC[C@](C)(C(=O)NO)S(C)(=O)=O)cc2F)cc1 [Example 43, (2R)-4-[5-Fluoro-4-(4-trideuteromethylphenyl)-2-oxopyridin-1(2H)-yl]-N-hydroxy-2-methyl-2-(methylsulfonyl)butanamide] | 0.5 (≈ 1.25 µM) | 653 | 0.25 (≈ 0.626 µM) | > 64 | –
3 | COc1ccc(-c2cc(=O)n(CC[C@](C)(C(=O)NO)S(C)(=O)=O)cc2F)cc1C [Example 34, (2R)-4-[5-Fluoro-4-(4-methoxy-3-methylphenyl)-2-oxopyridin-1(2H)-yl]-N-hydroxy-2-methyl-2-(methylsulfonyl)butanamide] | 0.5 (≈ 1.17 µM) | 834 | 0.25 (≈ 0.586 µM) | > 64 | –
4 | COc1ccc(-c2cc(=O)n(CC[C@](C)(C(=O)NO)S(C)(=O)=O)cc2F)cc1 [Example 28, (2R)-4-[5-Fluoro-4-(4-methoxyphenyl)-2-oxopyridin-1(2H)-yl]-N-hydroxy-2-methyl-2-(methylsulfonyl)butanamide] | 0.5 (≈ 1.21 µM) | 564 | 1 (≈ 2.42 µM) | > 64 | –
5 | C[C@@](CCn1cc(F)c(-c2ccc(Cl)cc2)cc1=O)(C(=O)NO)S(C)(=O)=O [Example 3, (2R)-4-[4-(4-Chlorophenyl)-5-fluoro-2-oxopyridin-1(2H)-yl]-N-hydroxy-2-methyl-2-(methylsulfonyl)butanamide] | 0.25 (≈ 0.6 µM) | 325 | 0.25 (≈ 0.6 µM) | 64 (≈ 154 µM) | –
6 | C[C@@](CCn1cc(F)c(-c2ccc(-n3nccn3)cc2)cc1=O)(C(=O)NO)S(C)(=O)=O [Example 26, (2R)-4-{5-Fluoro-2-oxo-4-[4-(2H-1,2,3-triazol-2-yl)phenyl]pyridin-1(2H)-yl}-N-hydroxy-2-methyl-2-(methylsulfonyl)butanamide] | 0.25 (≈ 0.556 µM) | 74.3 | ≤ 0.06 | > 64 | –
7 | C[C@@](CCn1cc(F)c(-c2ccc(-n3ncnn3)cc2)cc1=O)(C(=O)NO)S(C)(=O)=O [Example 1, (2R)-4-{5-fluoro-2-oxo-4-[4-(2H-tetrazol-2-yl)phenyl]pyridin-1(2H)-yl}-N-hydroxy-2-methyl-2-(methylsulfonyl)butanamide] | 32 (≈ 71 µM) | 1490 | > 64 | > 64 | –
8 | C[C@@](CCn1cc(F)c(-c2ccc(OC(F)F)cc2)cc1=O)(C(=O)NO)S(C)(=O)=O [Example 33, (2R)-4-{4-[4-(Difluoromethoxy)phenyl]-5-fluoro-2-oxopyridin-1(2H)-yl}-N-hydroxy-2-methyl-2-(methylsulfonyl)butanamide] | 0.5 (≈ 1.12 µM) | 60.6 | 0.5 (≈ 1.12 µM) | > 64 | –
9 | CCCc1ccc(-c2cc(=O)n(CC[C@](C)(C(=O)NO)S(C)(=O)=O)cc2F)cc1 [Example 11, (2R)-4-[5-Fluoro-2-oxo-4-(4-propylphenyl)pyridin-1(2H)-yl]-N-hydroxy-2-methyl-2-(methylsulfonyl)butanamide] | 0.5 (≈ 1.18 µM) | 482 | 0.125 (≈ 0.294 µM) | > 64 | –
10 | COc1c(-c2ccccc2)c(F)cn(CC[C@](C)(C(=O)NO)S(C)(=O)=O)c1=O [Example 39, (2R)-4-(5-Fluoro-3-methoxy-2-oxo-4-phenylpyridin-1(2H)-yl)-N-hydroxy-2-methyl-2-(methylsulfonyl)butanamide] | 8 (≈ 19.4 µM) | 8070 | 4 (≈ 9.7 µM) | 64 (≈ 155 µM) | –
11 | COc1ccc(-c2cc(=O)n(CC[C@](C)(C(=O)NO)S(C)(=O)=O)cc2F)c(F)c1 [Example 27, (2R)-4-[5-Fluoro-4-(2-fluoro-4-methoxyphenyl)-2-oxopyridin-1(2H)-yl]-N-hydroxy-2-methyl-2-(methylsulfonyl)butanamide] | 0.5 (≈ 1.16 µM) | 49.8 | 0.25 (≈ 0.581 µM) | > 64 | –
12 | COc1ccc(-c2ccc(-c3cc(=O)n(CC[C@](C)(C(=O)NO)S(C)(=O)=O)cc3F)cc2)cn1 [Example 32, (2R)-4-{5-Fluoro-4-[4-(6-methoxypyridin-3-yl)phenyl]-2-oxopyridin-1(2H)-yl}-N-hydroxy-2-methyl-2-(methylsulfonyl)butanamide] | 1 (≈ 2.04 µM) | 400 | ≤ 0.06 | > 64 | –
13 | C[C@@](CCn1cc(F)c(-c2ccc(OC[C@H]3CC[C@H](O)CC3)cc2)cc1=O)(C(=O)NO)S(C)(=O)=O [Example 18, (2R)-4-[5-Fluoro-4-{4-[(trans-4-hydroxycyclohexyl)methoxy]phenyl}-2-oxopyridin-1(2H)-yl]-N-hydroxy-2-methyl-2-(methylsulfonyl)butanamide] | 1 (≈ 1.96 µM) | 463 | 0.125 (≈ 0.245 µM) | > 64 | –
14 | C[C@@](CCn1cc(F)c(-c2ccccc2F)cc1=O)(C(=O)NO)S(C)(=O)=O [Example 4, (2R)-4-[5-Fluoro-4-(2-fluorophenyl)-2-oxopyridin-1(2H)-yl]-N-hydroxy-2-methyl-2-(methylsulfonyl)butanamide] | 0.5 (≈ 1.25 µM) | 717 | 2 (≈ 4.99 µM) | > 64 | –
15 | C[C@@](CCn1cc(F)c(-c2ccc(OC(F)F)c(F)c2)cc1=O)(C(=O)NO)S(C)(=O)=O [Example 35, (2R)-4-{4-[4-(difluoromethoxy)-3-fluorophenyl]-5-fluoro-2-oxopyridin-1(2H)-yl}-N-hydroxy-2-methyl-2-(methylsulfonyl)butanamide] | 0.5 (≈ 1.07 µM) | 589 | 1 (≈ 2.14 µM) | > 64 | –
16 | C[C@@](CCn1cc(F)c(-c2ccc(S(F)(F)(F)(F)F)cc2)cc1=O)(C(=O)NO)S(C)(=O)=O [Example 12, (2R)-4-{5-Fluoro-2-oxo-4-[4-(pentafluoro-6λ-sulfanyl)phenyl]pyridin-1(2H)-yl}-N-hydroxy-2-methyl-2-(methylsulfonyl)butanamide] | 4 (≈ 7.87 µM) | 1140 | 4 (≈ 7.87 µM) | > 64 | –
17 | CSc1ccc(-c2cc(=O)n(CC[C@](C)(C(=O)NO)S(C)(=O)=O)cc2F)cc1 [Example 9, (2R)-4-{5-Fluoro-4-[4-(methylthio)phenyl]-2-oxopyridin-1(2H)-yl}-N-hydroxy-2-methyl-2-(methylsulfonyl)butanamide] | 0.5 (≈ 1.17 µM) | – | 0.25 (≈ 0.583 µM) | > 64 | 510
18 | C[C@@](CCn1cc(F)c(-c2ccccc2)c(F)c1=O)(C(=O)NO)S(C)(=O)=O [Example 38, (2R)-4-(3,5-Difluoro-2-oxo-4-phenylpyridin-1(2H)-yl)-N-hydroxy-2-methyl-2-(methylsulfonyl)butanamide] | 0.5 (≈ 1.25 µM) | 550 | 1 (≈ 2.5 µM) | > 64 | –
